Experimental data as given in US12077503B2, “Substituted cyclic amides and their use as herbicides” (FMC CORPORATION, priority 2015, dated 2024).

Assays:
Type in all cases: in vivo
[1] = system: redroot pigweed (Amaranthus retroflexus); experiment: Test G Pre-Emergence Protocol; conditions: Amaranthus retroflexus, pre-emergence, 312 h, evaluated after 13 days; for pest or weed control at 15.625 g/ha: 15.625 g ai/ha; for pest or weed control at 15.625 g/ha / pest or weed control at 250 g/ha: read-out: Pigweed, Redroot damage rating (100=total damage to plant; 0=no damage to plant); for pest or weed control at 62.5 g/ha: 62.5 g ai/ha, 100=total damage to plant, 0=no damage to plant, read-out: plant damage rating, Pigweed, Redroot; for pest or weed control at 250 g/ha: 250 g ai/ha
Procedure, shortened: (§1)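 Visual injury (0–100) at day 13 after a single pre-emergence spray. Rates: 15.625, 62.5, 250 g/ha in acetone–water 50:50 with 0.5% Tween 20. Growth conditions: 24/16° C, 14 h light, 65% humidity.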

[2] = system: ivy-leaved morning glory (Ipomoea hederacea); experiment: Test G Pre-Emergence Protocol; conditions: Ipomoea, pre-emergence, 312 h, evaluated after 13 days; for pest or weed control at 15.625 g/ha: 15.625 g ai/ha, read-out: Morning-glory, Ivy-leaved damage rating (100=total damage to plant; 0=no damage to plant); for pest or weed control at 62.5 g/ha: 62.5 g ai/ha, 100=total damage to plant, 0=no damage to plant, read-out: plant damage rating, Morningglory, Ivy-leaved; for pest or weed control at 250 g/ha: 250 g ai/ha, read-out: Morningglory, Ivy-leaved damage rating (100=total damage to plant; 0=no damage to plant)
Procedure, shortened: as §1

[3] = system: velvetleaf (Abutilon theophrasti); experiment: Test G Pre-Emergence Protocol; conditions: Abutilon theophrasti, pre-emergence, 312 h, evaluated after 13 days; for pest or weed control at 15.625 g/ha: 15.625 g ai/ha; for pest or weed control at 15.625 g/ha / pest or weed control at 250 g/ha: read-out: Velvetleaf damage rating (100=total damage to plant; 0=no damage to plant); for pest or weed control at 62.5 g/ha: 62.5 g ai/ha, 100=total damage to plant, 0=no damage to plant, read-out: plant damage rating, Velvetleaf; for pest or weed control at 250 g/ha: 250 g ai/ha
Procedure, shortened: as §1

[4] = system: corn (Zea mays); experiment: Test G Pre-Emergence Protocol; conditions: Zea mays, pre-emergence, 312 h, evaluated after 13 days; for plant injury at 15.625 g/ha: 15.625 g ai/ha; for plant injury at 15.625 g/ha / plant injury at 250 g/ha: read-out: Corn damage rating (100=total damage to plant; 0=no damage to plant); for plant injury at 62.5 g/ha: 62.5 g ai/ha, 100=total damage to plant, 0=no damage to plant, read-out: plant damage rating, Corn; for plant injury at 250 g/ha: 250 g ai/ha
Procedure, shortened: as §1

[5] = system: barnyardgrass (Echinochloa crus-galli); experiment: Test G Pre-Emergence Protocol; conditions: Echinochloa crus-galli, pre-emergence, 312 h, evaluated after 13 days; for pest or weed control at 15.625 g/ha: 15.625 g ai/ha, read-out: Barnyard grass damage rating (100=total damage to plant; 0=no damage to plant); for pest or weed control at 62.5 g/ha: 62.5 g ai/ha, 100=total damage to plant, 0=no damage to plant, read-out: plant damage rating, Barnyardgrass; for pest or weed control at 250 g/ha: 250 g ai/ha, read-out: Barnyardgrass damage rating (100=total damage to plant; 0=no damage to plant)
Procedure, shortened: as §1

[6] = system: giant foxtail (Setaria faberi); experiment: Test G Pre-Emergence Protocol; conditions: Setaria faberi, pre-emergence, 312 h, evaluated after 13 days; for pest or weed control at 15.625 g/ha: 15.625 g ai/ha; for pest or weed control at 15.625 g/ha / pest or weed control at 250 g/ha: read-out: Foxtail, Giant damage rating (100=total damage to plant; 0=no damage to plant); for pest or weed control at 62.5 g/ha: 62.5 g ai/ha, 100=total damage to plant, 0=no damage to plant, read-out: plant damage rating, Foxtail, Giant; for pest or weed control at 250 g/ha: 250 g ai/ha
Procedure, shortened: as §1

[7] = system: redroot pigweed (Amaranthus retroflexus); experiment: Test G Post-Emergence Protocol; conditions: Amaranthus retroflexus, post-emergence, 312 h; for pest or weed control at 15.625 g/ha: 15.625 g ai/ha, evaluated after 13 days (100=total damage to plant; 0=no damage to plant), read-out: Pigweed, Redroot damage rating; for pest or weed control at 62.5 g/ha: 62.5 g ai/ha, read-out: Pigweed, Redroot damage rating (100=total damage to plant; 0=no damage to plant); for pest or weed control at 62.5 g/ha / pest or weed control at 250 g/ha: evaluated after 13 days; for pest or weed control at 250 g/ha: 250 g ai/ha, read-out: damage to plant, Pigweed, Redroot (100=total damage to plant; 0=no damage to plant)
Procedure, shortened: (§2)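 Values are percent visual injury at 13 days after treatment (0 none, 100 total). Treatment was a post-emergence spray at 15.625, 62.5 or 250 g/ha on 8-day-old pot plants kept at 24/16 °C.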

[8] = system: ivy-leaved morning glory (Ipomoea hederacea); experiment: Test G Post-Emergence Protocol; conditions: Ipomoea, post-emergence, 312 h; for pest or weed control at 15.625 g/ha: 15.625 g ai/ha, evaluated after 13 days (100=total damage to plant; 0=no damage to plant), read-out: Morningglory, Ivy-leaved damage rating; for pest or weed control at 62.5 g/ha: 62.5 g ai/ha, read-out: Morningglory, Ivy-leaved damage rating (100=total damage to plant; 0=no damage to plant); for pest or weed control at 62.5 g/ha / pest or weed control at 250 g/ha: evaluated after 13 days; for pest or weed control at 250 g/ha: 250 g ai/ha, read-out: damage to plant, Morningglory, Ivy-leaved (100=total damage to plant; 0=no damage to plant)
Procedure, shortened: as §2

[9] = system: velvetleaf (Abutilon theophrasti); experiment: Test G Post-Emergence Protocol; conditions: Abutilon theophrasti, post-emergence, 312 h; for pest or weed control at 15.625 g/ha: 15.625 g ai/ha, evaluated after 13 days (100=total damage to plant; 0=no damage to plant), read-out: Velvetleaf damage rating; for pest or weed control at 62.5 g/ha: 62.5 g ai/ha, read-out: Velvetleaf damage rating (100=total damage to plant; 0=no damage to plant); for pest or weed control at 62.5 g/ha / pest or weed control at 250 g/ha: evaluated after 13 days; for pest or weed control at 250 g/ha: 250 g ai/ha, read-out: damage to plant, Velvetleaf (100=total damage to plant; 0=no damage to plant)
Procedure, shortened: as §2

[10] = system: corn (Zea mays); experiment: Test G Post-Emergence Protocol; conditions: Zea mays, post-emergence, 312 h; for plant injury at 15.625 g/ha: 15.625 g ai/ha, evaluated after 13 days (100=total damage to plant; 0=no damage to plant), read-out: Corn damage rating; for plant injury at 62.5 g/ha: 62.5 g ai/ha, read-out: Corn damage rating (100=total damage to plant; 0=no damage to plant); for plant injury at 62.5 g/ha / plant injury at 250 g/ha: evaluated after 13 days; for plant injury at 250 g/ha: 250 g ai/ha, read-out: damage to plant, Corn (100=total damage to plant; 0=no damage to plant)
Procedure, shortened: as §2

[11] = system: barnyardgrass (Echinochloa crus-galli); experiment: Test G Post-Emergence Protocol; conditions: Echinochloa crus-galli, post-emergence, 312 h; for pest or weed control at 15.625 g/ha: 15.625 g ai/ha, evaluated after 13 days (100=total damage to plant; 0=no damage to plant), read-out: Barnyardgrass damage rating; for pest or weed control at 62.5 g/ha: 62.5 g ai/ha, read-out: Barnyardgrass damage rating (100=total damage to plant; 0=no damage to plant); for pest or weed control at 62.5 g/ha / pest or weed control at 250 g/ha: evaluated after 13 days; for pest or weed control at 250 g/ha: 250 g ai/ha, read-out: damage to plant, Barnyardgrass (100=total damage to plant; 0=no damage to plant)
Procedure, shortened: as §2

[12] = system: giant foxtail (Setaria faberi); experiment: Test G Post-Emergence Protocol; conditions: Setaria faberi, post-emergence, 312 h; for pest or weed control at 15.625 g/ha: 15.625 g ai/ha, evaluated after 13 days (100=total damage to plant; 0=no damage to plant), read-out: Foxtail, Giant damage rating; for pest or weed control at 62.5 g/ha: 62.5 g ai/ha, read-out: Foxtail, Giant damage rating (100=total damage to plant; 0=no damage to plant); for pest or weed control at 62.5 g/ha / pest or weed control at 250 g/ha: evaluated after 13 days; for pest or weed control at 250 g/ha: 250 g ai/ha, read-out: damage to plant, Foxtail, Giant (100=total damage to plant; 0=no damage to plant)
Procedure, shortened: as §2

Row | SMILES | pest or weed control at 15.625 g/ha [1] [%] | pest or weed control at 62.5 g/ha [1] [%] | pest or weed control at 250 g/ha [1] [%] | pest or weed control at 15.625 g/ha [2] [%] | pest or weed control at 62.5 g/ha [2] [%] | pest or weed control at 250 g/ha [2] [%] | pest or weed control at 15.625 g/ha [3] [%] | pest or weed control at 62.5 g/ha [3] [%] | pest or weed control at 250 g/ha [3] [%] | plant injury at 15.625 g/ha [4] [%] | plant injury at 62.5 g/ha [4] [%] | plant injury at 250 g/ha [4] [%] | pest or weed control at 15.625 g/ha [5] [%] | pest or weed control at 62.5 g/ha [5] [%] | pest or weed control at 250 g/ha [5] [%] | pest or weed control at 15.625 g/ha [6] [%] | pest or weed control at 62.5 g/ha [6] [%] | pest or weed control at 250 g/ha [6] [%] | pest or weed control at 15.625 g/ha [7] [%] | pest or weed control at 62.5 g/ha [7] [%] | further results
1 | Cc1c(NC(=O)[C@H]2C(=O)N(C)C[C@@H]2c2ccc(C(F)(F)F)cc2)cccc1C(F)(F)F (racemic) [Compound 1424] | 0 | 0 | 0 | 0 | 0 | 0 | 0 | 0 | 0 | 0 | 0 | 0 | 0 | 10 | 50 | 0 | 40 | 70 | 10 | 20 | pest or weed control at 250 g/ha [7]: 20%; pest or weed control at 15.625 g/ha [8]: 0%; pest or weed control at 62.5 g/ha [8]: 0%; pest or weed control at 250 g/ha [8]: 0%; pest or weed control at 15.625 g/ha [9]: 0%; pest or weed control at 62.5 g/ha [9]: 0%; pest or weed control at 250 g/ha [9]: 0%; plant injury at 15.625 g/ha [10]: 0%; plant injury at 62.5 g/ha [10]: 0%; plant injury at 250 g/ha [10]: 10%; pest or weed control at 15.625 g/ha [11]: 0%; pest or weed control at 62.5 g/ha [11]: 0%; pest or weed control at 250 g/ha [11]: 10%; pest or weed control at 15.625 g/ha [12]: 0%; pest or weed control at 62.5 g/ha [12]: 0%; pest or weed control at 250 g/ha [12]: 20%
2 | CN1C[C@@H](c2ccc(C(F)(F)F)cc2)[C@H](C(=O)Nc2cnccn2)C1=O (racemic) [Compound 1572] | 0 | 0 | 0 | 0 | 0 | 0 | 0 | 0 | 0 | 0 | 0 | 0 | 0 | 0 | 0 | 0 | 0 | 0 | 0 | 0 | pest or weed control at 250 g/ha [7]: 20%; pest or weed control at 15.625 g/ha [8]: 0%; pest or weed control at 62.5 g/ha [8]: 10%; pest or weed control at 250 g/ha [8]: 30%; pest or weed control at 15.625 g/ha [9]: 0%; pest or weed control at 62.5 g/ha [9]: 0%; pest or weed control at 250 g/ha [9]: 0%; plant injury at 15.625 g/ha [10]: 0%; plant injury at 62.5 g/ha [10]: 0%; plant injury at 250 g/ha [10]: 0%; pest or weed control at 15.625 g/ha [11]: 0%; pest or weed control at 62.5 g/ha [11]: 0%; pest or weed control at 250 g/ha [11]: 0%; pest or weed control at 15.625 g/ha [12]: 0%; pest or weed control at 62.5 g/ha [12]: 0%; pest or weed control at 250 g/ha [12]: 40%
